According to patent US20260125371A1, “METHOD FOR INHIBITING CLOSTRIDIOIDES DIFFICILE SPORE GERMINATION” (UNIVERSITY OF NOTRE DAME DU LAC, priority 2022, published 2026):

Legend:
K. pneumoniae ATCC700603 = assay: MIC against K. pneumoniae; assay type: cell-based; details: Klebsiella pneumoniae; K. pneumoniae ATCC700603; read-out: MIC
C. difficile ATCC 43255 = assay: Time-kill assay; assay type: cell-based, Clostridioides difficile
[1] = tested on: C. difficile ATCC 43255 vegetative cells; assay: Mode of action by scanning electron microscopy (SEM); details: 8× MIC for 24 h

O=[N+]([O-])c1cnc(-c2nc(-c3ccc(OC4CCCC4)cc3)no2)[nH]1 [Compound 57, 3-(4-(Cyclopentyloxy)phenyl)-5-(4-nitro-1H-imidazol-2-yl)-1,2,4-oxadiazole]
MIC (K. pneumoniae ATCC700603): > 128 µg/mL | reduction in bacterial growth (time-kill) (C. difficile ATCC 43255; 4× MIC, 12 h): ≥ 3 log10 | reduction in bacterial growth (time-kill) (C. difficile ATCC 43255; 8× MIC): 4 log 10 | reduction in bacterial growth (time-kill) (C. difficile ATCC 43255; all concentrations: 1×, 2×, 4×, 8× MIC): Four-log10 reduction | effect on vegetative cells by SEM [1]: damage to the cell wall
